The values below come from ChEMBL document CHEMBL1143332, “Syntheses of tricyclic pyrones and pyridinones and protection of Abeta-peptide induced MC65 neuronal cell death” (Bioorg Med Chem Lett, 2009).

The structures appear in SMILES notation. The source made the active and inactive calls. The calls are words filed in the database; no cut-off is given here.

The nature of assay [1]: (§1) Cell protective activity in human MC65 cells assessed as protection against amyloid beta precursor protein C99-induced neuronal cell death after 3 days by MTT assay. Conditions: 72 h. It counts as functional, cell-based. In general terms: Tetrazolium dyes change colour on reduction, which living cells bring about.
The test system of a further assay is neuronal. The assay is described as §1. The format is functional, cell-based.

As usually defined, the EC50 is the concentration needed to bring the measured effect to its halfway point. Take `C=C(C)[C@H]1CCC2=Cc3c(cc(C)n(Cc4ccc(OC)cc4)c3=O)O[C@H]2C1`: in assay [1], the EC50 came out at 1250 nM. Still for that read-out and setting: to `Cc1cc2c(c(=O)o1)C=C1CC[C@H]([C@@H](C)Cn3cnc4c(N)ncnc43)C[C@@H]1O2` belongs 3000 nM; to `Cc1cc2c(c(=O)o1)C=C1CC[C@H]([C@@H](C)Cn3cnc4c(Cl)ncnc43)C[C@@H]1O2`, 930 nM; to `COc1ccc(Cn2c(C)cc3c(c2=O)C=C2CC[C@H]([C@@H](C)Cn4cnc(N)c5ncnc4-5)C[C@@H]2O3)cc1`, 350 nM.

`C=C(C)[C@@H]1CCc2cnc3cc(C)oc(=O)c3c2C1`: the 50% effective concentration (EC50) in assay [1] worked out at 2490 nM. The same measure, in the same setting: to `Cc1cc2c(c(=O)o1)C=C1CC[C@H]([C@@H](C)CSc3ncccn3)C[C@@H]1O2` belongs 1380 nM. Turning to `C=C(C)[C@H]1CCc2cc3c(=O)oc(C)cc3nc2C1`, in the assay on neuronal, the result was inactive. Consider `Cc1cc2c(c(=O)o1)C=C1CC[C@H]([C@@H](C)COc3nccc(N)n3)C[C@@H]1O2`, for which the EC50 in assay [1] was determined as 2940 nM. The same measure, in the same setting: under `C=C(Cn1cnc(N)c2ncnc1-2)[C@H]1CCC2=Cc3c(cc(C)oc3=O)O[C@H]2C1` stands 1950 nM.

In the case of `Cc1cc2c(c(=O)o1)C=C1CC[C@H]([C@@H](C)Cn3ccc(N)nc3=O)C[C@@H]1O2`, the result with neuronal was inactive. Take `Cc1cc2c(c(=O)o1)C=C1CC[C@H]([C@@H](C)Cn3cnc(N)c4ncnc3-4)C[C@@H]1O2`: in assay [1], the EC50 was determined as 310 nM. The same measure, in the same setting: under `Cc1cc2c(c(=O)o1)C=C1CC[C@H]([C@@H](C)Cn3cc(C#N)c(N)n3)C[C@@H]1O2` stands 8300 nM; under `Cc1cc2c(c(=O)o1)C=C1CC[C@H]([C@@H](C)Cn3cc(C)c(=O)[nH]c3=O)C[C@@H]1O2`, 6920 nM; under `Cc1cc2c(c(=O)o1)C=C1CC[C@H]([C@@H](C)Cn3cnc4cnc(N)nc43)C[C@@H]1O2`, 860 nM. Consider `CC(=O)Nc1nc2c(ncn2C[C@H](C)[C@H]2CCC3=Cc4c(cc(C)oc4=O)O[C@H]3C2)c(=O)[nH]1`, for which, in the assay on neuronal, the result was inactive.
